# Measured values: patent publication US7417175B2, “Interstitial prostatism model animal” (Taiho Pharmaceuticals Co., Ltd., priority 2001, dated 2008)
# Columns and labels:
# [1] = system: subcutaneously-implanted, rat fetal urogenital sinus-derived tissues; assay: Inhibition of weight increase of rat fetal urogenital sinus-derived tissue implanted subcutaneously in nude mice (prostatic stromal hyperplasia model); assay type: in vivo, male nude mice (BALB/cA Jcl-nu); details: for Rate of inhibition (%) to weight increase of implanted tissue: tissue weighed day 14, vs solvent group
# Text: Under ether anesthesia, fetuses were removed from female SD rats that were 21 days pregnant. From the removed male fetuses, urogenital sinuses were removed also under ether anesthesia while observing through a stereoscopic microscope. The urogenital sinuses were stored in a sterilized culture medium until implantation. The abdominal skin adjacent the left femoral region of 6-week old BALB/c male nude mice was cut open about 2 to 3 mm under ether anesthesia. A single rat fetal urogenital sinus obtained in (1) above was subcutaneously implanted after incision using a forceps and the incision was sutured. Thereafter, these nude mice were reared in clean racks (Rat Bracket Cages, 3 to 4 mice/cage) for 2 weeks under the following conditions: • Temperature: 20 to 26° C. • Humidity: 30 to 70% • Lighting hours: 12-hour light-dark cycle; light-on at 8 am and light-out at 8 pm • Feed and feeding method: solid feed for mouse, MF (irradiated), ad libitum • Water and watering method: tap water, ad libitum (3) Weighing of Implanted Tissue (Rat Fetal Urogenital Sinus-derived Tissue) Animal models for prostatic stromal hyperplasia of the invention were prepared according to the methods described in Example 1 (1) and (2) by implanting the urogenital sinuses of rat fetuses (21 day-old) beneath the abdominal skin of 6-week-old male nude mice (BALB/cA Jcl-nu). For 2 weeks from the implantation day (day 0), a known therapeutic agent for benign prostatic hyperplasia, i.e., chlormadinone acetate (anti-androgen agent: 6-chloro-3,20-dioxopregna-4,6-dien-17,alpha-yl acetate; suspended or dissolved in 0.5% hydroxypropylmethyl cellulose (0.5% HPMC) solvent) was forcedly administered orally once a day (3 test substance-administered groups: 30 mg/kg·day, 100 mg/kg·day, 300 mg/kg·day; n=10 mice/group). Two weeks after the beginning of administration (day 14), the model animals were sacrificed by over anesthesia, and the implanted tissues (rat fetal urogenital sinus-derived tissues) were removed and weighed (weights from the test substance-administered groups). As a control experiment, for 2 weeks after implantation, model animals (solvent-administered group: n=10 mice) were forcedly administered with a solvent (0.5% HPMC), no chlormadinone acetate dissolved therein, once a day orally. […] The inhibition rate to weight increase of the subcutaneously-implanted, rat fetal urogenital sinus-derived tissues was calculated according to the formula shown in Equation 1, with respect to each chlormadinone acetate-administered group, and the effects of the therapeutic agent for benign prostatic hyperplasia (chlormadinone acetate) upon these tissues were then evaluated. […]
# [2] = system: rat fetal urogenital sinus-derived tissues implanted beneath the prostatic capsules; assay: Inhibition of weight increase of rat fetal urogenital sinus-derived tissue implanted beneath the prostatic capsule of rats (prostatic stromal hyperplasia model); assay type: in vivo, male SD rats
# Text: Under ether anesthesia, fetuses were removed from female SD rats that were 20 days pregnant. From the removed fetuses, the urogenital sinuses were removed under ether anesthesia while observing through a stereoscopic microscope. The urogenital sinuses were stored in a sterilized culture medium until implantation. The prostate glands were exposed by midline incision using 6-week old male SD rats under ether anesthesia. The capsule of prostate right ventral lobe was slightly cut open while observing through a stereoscopic microscope. Two of the fetal urogenital sinuses obtained in (1) above were implanted using a forceps beneath the capsule, and the incision in the capsule was sutured. The cut abdominal skin then closed and the rats were reared for 2 to 8 weeks in normal rearing cages (Rat Bracket Cages, 3 to 4 rats/cage) under the following conditions: • Temperature: 20 to 26° C. • Humidity: 30 to 70% • Lighting hours: 12-hour light-dark cycle; light-on at 8 am and light-out at 8 pm • Feed and feeding method: solid feed for mouse, MF (irradiated), ad libitum • Water and watering method: tap water, ad libitum (3) Weighing of Implanted Tissue (Rat Fetal Urogenital Sinus-derived Tissue) Animal models for prostatic stromal hyperplasia of the present invention were prepared according to the methods described in Examples 2 (1) and (2) by implanting the urogenital sinuses of rat fetuses (20 days of intrauterine life) beneath the capsules of prostate ventral lobes of 6-week-old male SD rats. […] The rate inhibition to weight increase of the rat fetal urogenital sinus-derived tissues implanted beneath the prostatic capsules was calculated according to the formula shown in Equation 1 above, and the effects of the therapeutic agent on benign prostatic hyperplasia (chlormadinone acetate) were then evaluated. • Experiment (2): Animal models for prostatic stromal hyperplasia prepared as above were reared under the conditions described in Example 2 (2) for 3 weeks (until day 21) from the implantation day (day 0). […]
smiles,measurement,setting,value
"CC(=O)O[C@]1(C(C)=O)CC[C@H]2[C@@H]3C=C(Cl)C4=CC(=O)CC[C@]4(C)[C@H]3CC[C@@]21C [chlormadinone acetate, 6-chloro-3,20-dioxopregna-4,6-dien-17,alpha-yl acetate]",Rate of inhibition (%) to weight increase of implanted tissue,[1]; 30 mg/kg·day orally once a day for 2 weeks from implantation day,21.8%
same,Rate of inhibition (%) to weight increase of implanted tissue,[1]; 100 mg/kg·day orally once a day for 2 weeks from implantation day,39.5%
same,Rate of inhibition (%) to weight increase of implanted tissue,[1]; 300 mg/kg·day orally once a day for 2 weeks from implantation day,38.8%
same,Effect on tissue weight increase (in words),"[1]; oral, 2 weeks of rearing after implantation, subcutaneous implant in nude mice",significantly inhibits the tissues weight increase
same,Rate of inhibition (%) to weight increase of implanted tissue,"[2]; Experiment (1): 10 mg/kg·day orally for 3 weeks from implantation date, tissue weighed day 21",30.7%
same,Rate of inhibition (%) to weight increase of implanted tissue,"[2]; Experiment (2): 10 mg/kg·day orally for 3 weeks from 3 weeks after implantation (day 21 to day 42), tissue weighed day 42",67.0%
same,Effect on tissue weight increase (in words),"[2]; Experiments (1) and (2), 10 mg/kg·day oral, implant beneath prostatic capsule of rats",significantly inhibits the tissue weight increase
